Legend:
human MPs = experiment: MP tissue factor activity, Factor VIIa-dependent Factor Xa formation; type: cell-based
Method: Tissue factor activity of monolayers of ECs and MPs was determined (7) after incubation with EMAP II-derived peptides at 37° C. for 4-12 hrs by washing cultures with HEPES (10 MM; pH 7.4), NaCl (137 mM), KCl (4 mM), CaCl2 (3 mM), glucose (10 mM), bovine serum albumin (0.5 mg/ml), and addition of 0.5 ml of the same buffer along with purified human Factor VIIa (1 nM) and Factor X (200 nM) for 45 min at 37° C. Aliquots (0.05 ml) of the reaction mixture (one per well) were withdrawn at 15 min intervals, added to a buffer containing Tris (50 mM; pH 7.9), NaCl (175 mM), EDTA (5 mM) and bovine serum albumin (0.5 mg/ml; 0.05 ml), and the chromogenic substrate Spectrozyme Factor Xa (American Diagnositca, Inc., Greenwich Conn.; 0.01 ml; 2 mM). Cleavage of the substrate was monitored by the change in absorbance at 405 nm (BioKinetics Reader, Winooski, Vt.). Factor Xa concentration was determined by comparison with a standard curve generated with known amounts of purified human Factor Xa. Human, plasma-derived Factors VIIa and X were purified to homogeneity as described (31).
In Vitro Assays of EC, MP, and PMN Functions-Cell-associated tissue factor was assayed by its functional activity, using purified coagulation proteins, and tissue factor mRNA was detected by PCR. […] The concentration of Factor Xa was determined based on a standard curve generated with purified Factor Xa. […]

mouse footpad = experiment: Injection of peptides and peptide-albumin conjugates into mouse footpads; type: in vivo; settings: unconjugated peptide
Method: Preparation and implantation of peptide-albumin conjugates into mice. Peptide-albumin conjugates (made with either […], […] or […]) (SEQ ID NO. 16) were prepared using glutaraldehyde as described (39). In brief, mouse serum albumin (50 μg) was incubated with glutaraldehyde (450 μg) and the indicated peptide (200 μg) in NaCl (0.1 M) Tris (0.05 N; pH 7.3) for 10 min at room temperature. Excess lysine was added (final concentration, 0.5 M), and the albumin-peptide conjugates were dialyzed exhaustively versus phosphate-buffered saline. BALB/c mice (6-12 weeks) each received an injection into the footpad (7,40-41) of 0.05 ml of a solution of either (i) albumin-peptide conjugate (50 μg, total protein/footpad), (ii) albumin treated with glutaraldehyde in an identical fashion, except that no peptide was present (50 μg, total protein/footpad), (iii) native albumin (50 μg total protein/footpad), or (iv) buffer alone. At the indicated time, animals were sacrificed by humane euthanasia, footpads were harvested, fixed in buffered formalin (10%), decalcified, and embedded in paraffin. Sections were stained with hematoxylin and eosin.

human PMNs = experiment: [Ca2+]i measurement in PMNs (fura-2); type: cell-based
Method: [Ca^2+1]i measurements. PMNs or MPs (2×10^7 cells in each case) were incubated with fura-2 AM (1 μM) and pluronic detergent (0.02%) for 12 min at room temperature, diluted sixfold, and incubated for a further 30 min at room temperature to allow for complete hydrolysis of the dye. Cells were then resuspended in HEPES-buffered saline at 5×10^5 cells/ml (32). For experiments using MPs, sulfinpyrazone (0.5 mM) was included at all steps to minimize both dye sequestration into intracellular organelles and dye efflux (33). Fluorescence of fura-2 was monitored at 37° C. in a thermostatically-controlled cuvette installed in a Perkin Elmer Model 650-40 fluorescense spectrophotometer. Calibration of [Ca^2+]i was performed as described (34).
For determination of [Ca^2+] in PMSs and MPs, cells (2×10^7 in each case) were incubated with fura-2 AM (1 um) and pluronci detergent (0.02%) at room temperature, diluted 6-fold, and incubated for a further 30 min at room temperature to allow for complete hydrolysis of the dye. Cells were then resuspended in HEPES-buffered saline at 5×10^5 cells/ml (32). For MPs, sulfinpyrazone (0.5 mM) was included at all steps to minimize both dye sequestration into intracellular organelles and dye efflux (33). Fluorescence of fura-2 was monitored at 37° C. in a thermostatically controlled cuvette installed in a Perkin Elmer model 650-40 fluorescence spectrophotometer. Calibration of [Ca^2+] was performed as described (34).

For “ASRLDLRIGRIVTAKY [residues #6-20 from EMAP II, Cys to Arg substitution at position #15, and a C-terminal Tyr]”, the “Induction of tissue factor activity in MPs (Factor VIIa-dependent Factor X activation)” value (human MPs) was “did not demonstrate induction of tissue factor activity”, the “Inflammatory response to free peptide injected subcutaneously into mice” value (mouse footpad) was “at most a transient inflammatory response” and the “Rise in [Ca2+]i in PMNs” value (human PMNs) was “induced a rise in [Ca^2+]i”.

— patent US6734168B2, “Endothelial monocyte activating polypeptide II: a mediator which activates host response” (The Trustees of Columbia University in the City of New York, priority 1993, dated 2004)
